According to a compilation of properties of binary mixtures (doi:10.1007/s10953-014-0137-8):

Assay: xn = mol fraction of the nth substance listed
Details: 101 kPa

Compound: CCCC[n+]1ccn(C)c1.F[B-](F)(F)F + O
- speed of sound (293.15 K, x2 = 0.0964): 1580.4 m/s
- speed of sound (293.15 K, x2 = 0.2639): 1586.2 m/s
- electrical conductivity (293.15 K, x2 = 0.3058): 1 S/m
- speed of sound (293.15 K, x2 = 0.3901): 1590.2 m/s
- electrical conductivity (293.15 K, x2 = 0.4991): 1.67 S/m
- speed of sound (293.15 K, x2 = 0.5121): 1596.5 m/s
- speed of sound (293.15 K, x2 = 0.6369): 1601.7 m/s
- electrical conductivity (293.15 K, x2 = 0.7002): 3.02 S/m
- speed of sound (293.15 K, x2 = 0.7002): 1606.4 m/s
- speed of sound (293.15 K, x2 = 0.7456): 1608.6 m/s
- speed of sound (293.15 K, x2 = 0.7866): 1609.7 m/s
- speed of sound (293.15 K, x2 = 0.9): 1602.3 m/s
- electrical conductivity (293.15 K, x2 = 0.9001): 4.22 S/m
- electrical conductivity (293.15 K, x2 = 0.9252): 4.41 S/m
- speed of sound (293.15 K, x2 = 0.9252): 1593.6 m/s
- electrical conductivity (293.15 K, x2 = 0.9496): 4.31 S/m
- speed of sound (293.15 K, x2 = 0.9496): 1581.6 m/s
- electrical conductivity (293.15 K, x2 = 0.9744): 3.76 S/m
- speed of sound (293.15 K, x2 = 0.9744): 1559.6 m/s
- electrical conductivity (298.15 K, x2 = 0.1014): 0.595 S/m
- speed of sound (298.15 K, x2 = 0.2639): 1574.3 m/s
- electrical conductivity (298.15 K, x2 = 0.3058): 1.18 S/m
- speed of sound (298.15 K, x2 = 0.3901): 1579.2 m/s
- electrical conductivity (298.15 K, x2 = 0.4991): 1.97 S/m
- speed of sound (298.15 K, x2 = 0.5121): 1585.1 m/s
- speed of sound (298.15 K, x2 = 0.6369): 1591.6 m/s
- electrical conductivity (298.15 K, x2 = 0.7002): 3.41 S/m
- speed of sound (298.15 K, x2 = 0.7002): 1596.4 m/s
- speed of sound (298.15 K, x2 = 0.7456): 1598.6 m/s
- speed of sound (298.15 K, x2 = 0.7866): 1600.5 m/s
- speed of sound (298.15 K, x2 = 0.9): 1598.5 m/s
- electrical conductivity (298.15 K, x2 = 0.9001): 4.74 S/m
- electrical conductivity (298.15 K, x2 = 0.9252): 5.3 S/m
- speed of sound (298.15 K, x2 = 0.9252): 1592.2 m/s
- electrical conductivity (298.15 K, x2 = 0.9744): 4.22 S/m
- speed of sound (298.15 K, x2 = 0.9744): 1564.4 m/s
- speed of sound (303.15 K, x2 = 0.0964): 1557.7 m/s
- electrical conductivity (303.15 K, x2 = 0.1014): 0.709 S/m
- speed of sound (303.15 K, x2 = 0.2639): 1563 m/s
- electrical conductivity (303.15 K, x2 = 0.3058): 1.36 S/m
- speed of sound (303.15 K, x2 = 0.3901): 1567.7 m/s
- electrical conductivity (303.15 K, x2 = 0.4991): 2.2 S/m
- speed of sound (303.15 K, x2 = 0.5121): 1573.8 m/s
- speed of sound (303.15 K, x2 = 0.6369): 1581.8 m/s
- electrical conductivity (303.15 K, x2 = 0.7002): 3.97 S/m
- speed of sound (303.15 K, x2 = 0.7002): 1586.6 m/s
- speed of sound (303.15 K, x2 = 0.7456): 1590.2 m/s
- speed of sound (303.15 K, x2 = 0.7866): 1592.6 m/s
- electrical conductivity (303.15 K, x2 = 0.8493): 5.68 S/m
- speed of sound (303.15 K, x2 = 0.8493): 1595.5 m/s
- electrical conductivity (303.15 K, x2 = 0.9001): 5.67 S/m
- electrical conductivity (303.15 K, x2 = 0.9496): 5.39 S/m
- speed of sound (303.15 K, x2 = 0.9496): 1582.7 m/s
- electrical conductivity (303.15 K, x2 = 0.9744): 4.9 S/m
- speed of sound (303.15 K, x2 = 0.9744): 1567.9 m/s
- speed of sound (308.15 K, x2 = 0.0964): 1545.7 m/s
- electrical conductivity (308.15 K, x2 = 0.1014): 0.848 S/m
- speed of sound (308.15 K, x2 = 0.2639): 1551 m/s
- electrical conductivity (308.15 K, x2 = 0.3058): 1.51 S/m
- speed of sound (308.15 K, x2 = 0.3901): 1556.3 m/s
- electrical conductivity (308.15 K, x2 = 0.4991): 2.51 S/m
- speed of sound (308.15 K, x2 = 0.5121): 1561.8 m/s
- speed of sound (308.15 K, x2 = 0.7866): 1582.8 m/s
- electrical conductivity (308.15 K, x2 = 0.8493): 6.09 S/m
- speed of sound (308.15 K, x2 = 0.8493): 1587.5 m/s
- speed of sound (308.15 K, x2 = 0.9): 1588.3 m/s
- electrical conductivity (308.15 K, x2 = 0.9001): 6.39 S/m
- electrical conductivity (308.15 K, x2 = 0.9252): 6.6 S/m
- speed of sound (308.15 K, x2 = 0.9252): 1586 m/s
- electrical conductivity (308.15 K, x2 = 0.9496): 6.32 S/m
- speed of sound (308.15 K, x2 = 0.9496): 1581.6 m/s
- electrical conductivity (308.15 K, x2 = 0.9744): 5.08 S/m
- speed of sound (308.15 K, x2 = 0.9744): 1570.2 m/s
- speed of sound (313.15 K, x2 = 0.0964): 1534.6 m/s
- speed of sound (313.15 K, x2 = 0.2639): 1539.6 m/s
- electrical conductivity (313.15 K, x2 = 0.3058): 1.76 S/m
- speed of sound (313.15 K, x2 = 0.3901): 1544.9 m/s
- electrical conductivity (313.15 K, x2 = 0.4991): 2.79 S/m
- speed of sound (313.15 K, x2 = 0.5121): 1550.6 m/s
- speed of sound (313.15 K, x2 = 0.6369): 1559 m/s
- electrical conductivity (313.15 K, x2 = 0.7002): 4.67 S/m
- speed of sound (313.15 K, x2 = 0.7002): 1565 m/s
- speed of sound (313.15 K, x2 = 0.7456): 1569.3 m/s
- speed of sound (313.15 K, x2 = 0.7866): 1573.2 m/s
- speed of sound (313.15 K, x2 = 0.9): 1582.1 m/s
- electrical conductivity (313.15 K, x2 = 0.9001): 6.94 S/m
- electrical conductivity (313.15 K, x2 = 0.9252): 7.12 S/m
- speed of sound (313.15 K, x2 = 0.9252): 1581.6 m/s
- electrical conductivity (313.15 K, x2 = 0.9496): 6.65 S/m
- speed of sound (313.15 K, x2 = 0.9496): 1579.4 m/s
- electrical conductivity (318.15 K, x2 = 0.1014): 1.12 S/m
- electrical conductivity (318.15 K, x2 = 0.4991): 3.1 S/m
- speed of sound (318.15 K, x2 = 0.5121): 1539.3 m/s
- electrical conductivity (318.15 K, x2 = 0.7002): 5.29 S/m
- speed of sound (318.15 K, x2 = 0.7002): 1554 m/s
- speed of sound (318.15 K, x2 = 0.7456): 1558.4 m/s
- speed of sound (318.15 K, x2 = 0.7866): 1562 m/s
- electrical conductivity (318.15 K, x2 = 0.8493): 7.3 S/m
- speed of sound (318.15 K, x2 = 0.8493): 1570.2 m/s
- electrical conductivity (318.15 K, x2 = 0.9001): 7.66 S/m
- electrical conductivity (318.15 K, x2 = 0.9252): 7.99 S/m
- speed of sound (318.15 K, x2 = 0.9252): 1576.4 m/s
- electrical conductivity (318.15 K, x2 = 0.9496): 7.34 S/m
- speed of sound (318.15 K, x2 = 0.9496): 1576.4 m/s
- electrical conductivity (318.15 K, x2 = 0.9744): 6.16 S/m
- speed of sound (318.15 K, x2 = 0.9744): 1571.6 m/s
- speed of sound (323.15 K, x2 = 0.0964): 1511.5 m/s
- electrical conductivity (323.15 K, x2 = 0.1014): 1.37 S/m
- speed of sound (323.15 K, x2 = 0.2639): 1516.4 m/s
- electrical conductivity (323.15 K, x2 = 0.3058): 2.3 S/m
- speed of sound (323.15 K, x2 = 0.3901): 1522.1 m/s
- electrical conductivity (323.15 K, x2 = 0.4991): 3.31 S/m
- speed of sound (323.15 K, x2 = 0.5121): 1528 m/s
- speed of sound (323.15 K, x2 = 0.6369): 1534.5 m/s
- electrical conductivity (323.15 K, x2 = 0.7002): 5.74 S/m
- speed of sound (323.15 K, x2 = 0.7002): 1542.4 m/s
- speed of sound (323.15 K, x2 = 0.7456): 1546.8 m/s
- speed of sound (323.15 K, x2 = 0.7866): 1552.2 m/s
- speed of sound (323.15 K, x2 = 0.9): 1567.8 m/s
- electrical conductivity (323.15 K, x2 = 0.9001): 8.59 S/m
- electrical conductivity (323.15 K, x2 = 0.9252): 8.71 S/m
- speed of sound (323.15 K, x2 = 0.9252): 1570.5 m/s
